This note sets out measurements from patent US20040006236A1, “Diaminopropionic acid derivatives” (priority 1999, published 2004).

SMILES strings stand for the structures.

This assay deals with T1, LFA-1 binding to immobilized ICAM-1 (Homo sapiens, UniProt P05107+P20701).
T1 construct: made in house; host or cells: transfected 293 cells (LFA-1)
T1 sequence (P20701 26-1170): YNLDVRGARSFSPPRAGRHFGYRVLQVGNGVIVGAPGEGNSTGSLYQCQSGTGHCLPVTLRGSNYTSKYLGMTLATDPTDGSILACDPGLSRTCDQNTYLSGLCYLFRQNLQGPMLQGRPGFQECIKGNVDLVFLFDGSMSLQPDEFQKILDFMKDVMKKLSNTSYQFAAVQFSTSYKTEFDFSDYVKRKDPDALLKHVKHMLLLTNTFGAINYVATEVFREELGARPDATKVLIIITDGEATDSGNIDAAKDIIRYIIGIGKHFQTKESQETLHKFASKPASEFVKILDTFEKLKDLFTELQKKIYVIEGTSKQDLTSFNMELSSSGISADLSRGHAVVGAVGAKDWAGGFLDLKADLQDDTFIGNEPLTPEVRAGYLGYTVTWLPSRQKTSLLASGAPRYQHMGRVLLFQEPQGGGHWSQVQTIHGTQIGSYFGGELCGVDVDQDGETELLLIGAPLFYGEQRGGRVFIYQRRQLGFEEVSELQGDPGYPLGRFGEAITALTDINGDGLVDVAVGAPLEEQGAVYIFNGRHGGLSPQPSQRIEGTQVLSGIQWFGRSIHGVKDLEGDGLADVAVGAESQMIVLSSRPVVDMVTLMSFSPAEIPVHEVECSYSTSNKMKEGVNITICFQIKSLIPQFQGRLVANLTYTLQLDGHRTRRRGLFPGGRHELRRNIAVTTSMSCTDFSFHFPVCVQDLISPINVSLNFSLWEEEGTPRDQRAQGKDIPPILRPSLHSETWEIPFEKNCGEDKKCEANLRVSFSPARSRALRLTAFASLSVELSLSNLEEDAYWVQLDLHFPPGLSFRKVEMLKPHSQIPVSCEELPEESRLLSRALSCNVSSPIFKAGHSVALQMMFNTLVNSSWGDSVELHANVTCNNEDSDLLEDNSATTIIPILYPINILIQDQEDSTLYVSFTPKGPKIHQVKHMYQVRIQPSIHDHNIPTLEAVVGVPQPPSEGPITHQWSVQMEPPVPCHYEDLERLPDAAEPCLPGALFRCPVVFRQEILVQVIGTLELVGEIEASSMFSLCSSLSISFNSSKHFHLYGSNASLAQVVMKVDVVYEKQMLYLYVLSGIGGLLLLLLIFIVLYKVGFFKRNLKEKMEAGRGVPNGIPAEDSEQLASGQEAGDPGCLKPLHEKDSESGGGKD
T1 sequence (P05107 23-769): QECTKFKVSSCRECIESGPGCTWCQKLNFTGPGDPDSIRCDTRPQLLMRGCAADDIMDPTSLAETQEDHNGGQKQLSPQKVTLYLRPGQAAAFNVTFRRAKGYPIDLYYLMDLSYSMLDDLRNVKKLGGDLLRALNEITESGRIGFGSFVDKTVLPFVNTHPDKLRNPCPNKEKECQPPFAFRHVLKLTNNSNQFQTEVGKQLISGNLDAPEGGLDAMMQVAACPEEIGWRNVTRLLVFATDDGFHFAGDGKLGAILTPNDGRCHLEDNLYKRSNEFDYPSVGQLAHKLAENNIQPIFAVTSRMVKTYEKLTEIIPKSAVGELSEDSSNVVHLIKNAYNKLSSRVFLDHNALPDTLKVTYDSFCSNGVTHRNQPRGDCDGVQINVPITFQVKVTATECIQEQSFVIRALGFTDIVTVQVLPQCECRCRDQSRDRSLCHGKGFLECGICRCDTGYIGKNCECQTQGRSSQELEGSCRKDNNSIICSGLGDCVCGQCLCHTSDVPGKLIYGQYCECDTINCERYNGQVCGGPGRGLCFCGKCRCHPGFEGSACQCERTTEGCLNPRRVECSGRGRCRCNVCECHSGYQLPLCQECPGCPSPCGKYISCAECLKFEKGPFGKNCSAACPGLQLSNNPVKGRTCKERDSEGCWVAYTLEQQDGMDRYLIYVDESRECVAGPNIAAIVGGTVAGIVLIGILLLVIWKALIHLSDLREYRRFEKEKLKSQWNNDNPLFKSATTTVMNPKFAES
Put plainly: LFA-1/ICAM-1 protein-protein assay (solid-phase ELISA). The conditions noted are these: read-out: LFA-1/ICAM-1 Protein-Protein Assay IC50. Put shortly:
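Human 5dICAM-Ig (ICAM-1 extracellular domain–IgG Fc) coated on plates; membrane-bound LFA-1 from transfected 293 cells (280 ng/mL) added with compound in Mn2+-containing HEPES buffer pH 7.2, 2 h at 37° C. Bound LFA-1 detected via anti-β2 antibody and HRP/TMB at 450 nm; IC50s determined.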
Consider `Cc1cccc(C(=O)NC[C@H](NC(=O)c2ccc(C(=O)NCc3cccc(O)c3)cc2Cl)C(=O)O)c1` [Example 138], for which the IC50 was 0.7 nM.

Regarding `O=C(NCc1cccc(O)c1)c1ccc(C(=O)N[C@@H](CNC(=O)C2(c3ccccc3)CC2)C(=O)O)c(Cl)c1` [Example 99], the IC50 was 7.5 nM.

For `O=C(NC[C@H](NC(=O)c1ccc(C(=O)[C@H]2C[C@@H]2c2ccccc2)cc1Cl)C(=O)O)c1cccs1` [Example 377], the IC50 came out at 19 nM.

In the case of `O=C(NCc1cccc(O)c1)c1ccc(C(=O)N[C@@H](CNC(=O)c2ccccc2Oc2ccccc2)C(=O)O)c(Cl)c1` [Example 144], the IC50 was found to be 6.6 nM.

Regarding `Cc1noc(C)c1CCC(=O)NC[C@H](NC(=O)c1ccc(C(=O)NCc2cccc(O)c2)cc1Cl)C(=O)O` [Example 111], the IC50 was 2 nM.

Consider `Cc1ccccc1C(=O)NC[C@H](NC(=O)c1ccc(C(=O)NCc2cccc(O)c2)cc1Cl)C(=O)O` [Example 137], for which the IC50 was 1.1 nM.

`O=C(NCc1cccc(O)c1)c1ccc(C(=O)N[C@@H](CNS(=O)(=O)c2ccccc2)C(=O)O)c(Cl)c1` [Example 360, 3-(phenylsulfonylamino)-N-[2-chloro-4-[[[(3-hydroxyphenyl)methyl]amino]carbonyl]benzoyl]-L-alanine]: the IC50 amounted to 5.2 nM.

For the compound `O=C(NCc1cccc(O)c1)c1ccc(C(=O)N[C@@H](CNC(=O)C2CCCCC2)C(=O)O)c(Cl)c1` [Example 104], the IC50 is 3.5 nM.

In the case of `O=C(CCc1ccccc1)c1ccc(C(=O)N[C@@H](CNC(=O)c2cccs2)C(=O)O)c(Cl)c1` [Example 378], the IC50 came out at 9.7 nM.

Regarding `N=C(N)NC[C@H](NC(=O)c1ccc(C(=O)NCc2cccc(O)c2)cc1Cl)C(=O)O` [Example 371, N-[2-chloro-4-[[[(3-hydroxyphenyl)methyl]amino]-carbonyl]benzoyl]-3-(aminoiminomethyl)amino-L-alanine], the IC50 came out at 10 nM.

Regarding `C[C@@H](NC(=O)c1cc(Cl)c(C(=O)N[C@@H](CNC(=O)c2cccs2)C(=O)O)c(Cl)c1)c1cccc2ccccc12` [Example 346, N-[2,6-dichloro-4-[[[(1R)-1-(1-naphthalenyl)ethyl]amino]carbonyl]benzoyl]-3-[(thiophene-2-carbonyl)amino]-L-alanine], the IC50 is 2.1 nM.

Turning to `O=C(NCc1cccc(O)c1)c1ccc(C(=O)N[C@@H](CNC(=O)c2cccc(F)c2)C(=O)O)c(Cl)c1` [Example 131], the IC50 amounted to 0.8 nM.

Regarding `O=C(NCc1cccc(O)c1)c1ccc(C(=O)N[C@@H](CNC(=O)c2sccc2Br)C(=O)O)c(Cl)c1` [Example 154], the IC50 was 0.9 nM.

Regarding `O=C(NC[C@H](NC(=O)c1ccc(CNC(=O)c2ccccc2O)cc1Cl)C(=O)O)c1ccccc1` [Example 365], the IC50 amounted to 18 nM.

With `CN(C)c1ccc(C(=O)NC[C@H](NC(=O)c2ccc(C(=O)NCc3cccc(O)c3)cc2Cl)C(=O)O)cc1` [Example 128], the IC50 was 4.2 nM.

As for `C/C=C/C(=O)NC[C@H](NC(=O)c1ccc(C(=O)NCc2cccc(O)c2)cc1Cl)C(=O)O` [Example 113], the IC50 was 1.7 nM.

On to `CCCCCOc1ccc(C(=O)NC[C@H](NC(=O)c2ccc(C(=O)NCc3cccc(O)c3)cc2Cl)C(=O)O)cc1` [Example 143], for which the IC50 is 11 nM.

Regarding `CN(C)c1cccc(C(=O)NC[C@H](NC(=O)c2ccc(C(=O)NCc3cccc(O)c3)cc2Cl)C(=O)O)c1` [Example 127], the IC50 was 2.2 nM.

Turning to `Cc1ccc(C(=O)NC[C@H](NC(=O)c2ccc(C(=O)NCc3cccc(O)c3)cc2Cl)C(=O)O)cc1` [Example 139], the IC50 turned out to be 4.8 nM.

For the compound `COc1ccc(C(=O)NC[C@H](NC(=O)c2c(Cl)cc(C(=O)NCc3cccc(O)c3)cc2Cl)C(=O)O)cc1O` [Example 351], the IC50 is 0.8 nM.

`O=C(NCc1cccc(O)c1)c1ccc(C(=O)N[C@@H](CNC(=O)c2cc(Br)c(Br)s2)C(=O)O)c(Cl)c1` [Example 158]: the IC50 is 7.5 nM.

On to `Cc1ccc(C(=O)NC[C@H](NC(=O)c2ccc(C(=O)NCc3cccc(O)c3)cc2Cl)C(=O)O)s1` [Example 160], for which the IC50 is 0.9 nM.

On to `COCCC1(C(=O)NC[C@H](NC(=O)c2ccc(C(=O)NCc3cccc(O)c3)cc2Cl)C(=O)O)CCCC1` [Example 102], for which the IC50 was 2.2 nM.

For the compound `O=C(NCc1cccc(O)c1)c1ccc(C(=O)N[C@@H](CNC(=O)c2ccc(Br)s2)C(=O)O)c(Cl)c1` [Example 155], the IC50 is 0.7 nM.

With `O=C(NC[C@H](NC(=O)c1ccc(/C=C/Cc2ccccc2)cc1Cl)C(=O)O)c1cccs1` [Example 373, N-[2-chloro-4-(3-phenyl-1-propenyl)benzoyl]-3-(thiophene-2-carbonyl)amino-L-alanine], the IC50 worked out at 7.7 nM.

Regarding `COc1ccc(/C=C/C(=O)NC[C@H](NC(=O)c2ccc(C(=O)NCc3cccc(O)c3)cc2Cl)C(=O)O)cc1` [Example 114], the IC50 is 1.8 nM.

`O=C(NCc1cccc(O)c1)c1ccc(C(=O)N[C@@H](CNC(=O)c2cccc(Cl)c2)C(=O)O)c(Cl)c1` [Example 123]: the IC50 turned out to be 0.8 nM.

As to `O=C(NCc1ccc(C(=O)N[C@@H](CNC(=O)c2ccccc2)C(=O)O)c(Cl)c1)c1cccc(O)c1` [Example 364, N-[2-chloro-4-[[(3-hydroxyphenyl)carbonyl]aminomethyl]benzoyl]-3-benzoylamino-L-alanine], the IC50 is 7.7 nM.

As to `O=C(NCc1cccc(O)c1)c1ccc(C(=O)N[C@@H](CNC(=O)C2CCC2)C(=O)O)c(Cl)c1` [Example 100], the IC50 came to 2.9 nM.

As to `COc1cc(C(=O)NC[C@H](NC(=O)c2ccc(C(=O)NCc3cccc(O)c3)cc2Cl)C(=O)O)cc(OC)c1OC` [Example 147], the IC50 came to 15 nM.

Take `O=C(NCc1cccc(O)c1)c1ccc(C(=O)N[C@@H](CNC(=O)c2cccnc2)C(=O)O)c(Cl)c1` [Example 165]: the IC50 was found to be 1.3 nM.

For the compound `O=C(NCc1cccc(O)c1)c1ccc(C(=O)N[C@@H](CNC(=O)c2ccc([N+](=O)[O-])cc2)C(=O)O)c(Cl)c1` [Example 142], the IC50 is 2 nM.

Consider `O=C(NCc1cccc(O)c1)c1ccc(C(=O)N[C@@H](CNC(=O)c2cccc(I)c2)C(=O)O)c(Cl)c1` [Example 133], for which the IC50 was 1.5 nM.

For the compound `COC(=O)c1cccc(C(=O)NC[C@H](NC(=O)c2ccc(C(=O)NCc3cccc(O)c3)cc2Cl)C(=O)O)c1` [Example 136], the IC50 turned out to be 2 nM.

`CC(=O)Nc1nc(C)c(S(=O)(=O)NC[C@H](NC(=O)c2ccc(C(=O)N[C@H](C)c3cccc4ccccc34)cc2Cl)C(=O)O)s1` [Example 362]: the IC50 is 8.8 nM.

Turning to `O=C(NCc1cccc(O)c1)c1cc(Cl)c(C(=O)N[C@@H](CNC(=O)c2sccc2Br)C(=O)O)c(Cl)c1` [Example 353], the IC50 was 1.6 nM.

On to `O=C(NCc1cccc(O)c1)c1ccc(C(=O)N[C@@H](CNC(=O)c2cc(F)c(F)cc2F)C(=O)O)c(Cl)c1` [Example 145], for which the IC50 was 1.7 nM.

Turning to `O=C(NCc1cccc(O)c1)c1ccc(C(=O)N[C@@H](CNC(=O)c2ccc([N+](=O)[O-])o2)C(=O)O)c(Cl)c1` [Example 149], the IC50 was found to be 2.9 nM.

As for `CCOc1ccc(C(=O)NC[C@H](NC(=O)c2ccc(C(=O)NCc3cccc(O)c3)cc2Cl)C(=O)O)cc1` [Example 130], the IC50 came out at 5 nM.

With `O=C(CCN1CCCCC1)NC[C@H](NC(=O)c1ccc(C(=O)NCc2cccc(O)c2)cc1Cl)C(=O)O` [Example 112], the IC50 is 1.5 nM.
